In patent US20160046618A1, “Cyclopropyl Fused Thiazin-2-Amine Compounds as Beta-Secretase Inhibitors and Methods of Use” (AMGEN INC., priority 2014, published 2016):
Like-named read-outs stand apart in the source and are kept apart here.

Assays:
human recombinant BACE1 = human recombinant BACE1 (Homo sapiens (Human), UniProt P56817); experiment: In vitro enzymatic BACE1 FRET assay; assay type: biochemical; details: read-out: IC50 IP (μM) BACE1 enzyme
In short: (§1)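 Reactions were initiated by adding 50 nM of a peptide carrying fluorophore and quencher on opposite sides of the cleavage site and ran for one hour. Tris buffer then brought the pH to neutrality, ending the reaction, and fluorescence was measured (488 nm excitation, 590 nm emission).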

human recombinant BACE2 = human recombinant BACE2 (Homo sapiens (Human), UniProt Q9Y5Z0); experiment: In vitro enzymatic BACE2 FRET assay; assay type: biochemical; details: read-out: IC50 IP (μM) BACE2 enzyme
Sequence of human recombinant BACE2 (Q9Y5Z0 63-518): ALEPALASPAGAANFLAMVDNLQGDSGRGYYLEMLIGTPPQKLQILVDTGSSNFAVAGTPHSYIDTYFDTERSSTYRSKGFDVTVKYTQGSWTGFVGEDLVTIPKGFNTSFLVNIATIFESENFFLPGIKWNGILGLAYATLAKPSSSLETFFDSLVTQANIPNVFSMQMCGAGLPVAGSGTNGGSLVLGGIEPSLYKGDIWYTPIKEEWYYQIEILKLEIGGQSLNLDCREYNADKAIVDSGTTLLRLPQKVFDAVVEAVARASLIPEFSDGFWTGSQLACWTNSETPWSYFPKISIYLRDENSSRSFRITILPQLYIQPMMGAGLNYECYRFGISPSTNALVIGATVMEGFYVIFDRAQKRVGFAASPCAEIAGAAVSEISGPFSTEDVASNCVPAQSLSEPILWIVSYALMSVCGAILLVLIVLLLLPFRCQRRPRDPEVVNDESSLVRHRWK
In short: as §1

[1] = tested on: Aβ40 in conditioned medium of cells stably expressing Amyloid Precursor Protein (APP); experiment: In vitro BACE-1 cell-based assay (Aβ40 sandwich ELISA); details: read-out: IC50 IP (μM) BACE1 cell
In short: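 Aβ40 in supernatants measured by time-resolved fluorescence sandwich ELISA, with pAb40 as capture and biotin-6E10 as detector antibody, each incubated at 4 °C.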

Recombinant Cat D = Recombinant Cat D (Homo sapiens (Human), UniProt P07339); experiment: In vitro enzymatic Cathepsin D (Cat D) FRET assay; assay type: biochemical; details: read-out: IC50 IP (μM) CatD
Sequence of Recombinant Cat D (P07339 65-412): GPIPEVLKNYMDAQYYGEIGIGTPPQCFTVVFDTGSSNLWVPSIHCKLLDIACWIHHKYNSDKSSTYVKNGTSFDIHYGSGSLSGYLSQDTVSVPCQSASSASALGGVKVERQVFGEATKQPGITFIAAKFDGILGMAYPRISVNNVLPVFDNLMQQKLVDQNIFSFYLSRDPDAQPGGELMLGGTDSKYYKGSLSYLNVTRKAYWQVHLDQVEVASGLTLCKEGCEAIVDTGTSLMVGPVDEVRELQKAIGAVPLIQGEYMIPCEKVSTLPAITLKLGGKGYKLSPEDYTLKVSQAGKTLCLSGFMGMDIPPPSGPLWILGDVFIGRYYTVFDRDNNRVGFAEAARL
In short: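 CHO-expressed enzyme; buffer 0.05 M citrate pH 3.5, 5 mM CHAPS, 10% DMSO final. Start with FRET substrate 20 nM, 1 h incubation, Tris stop (pH to neutral), fluorescence ex 500 nm/em 580 nm.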

Sequence of human recombinant BACE1 (P56817 46-501): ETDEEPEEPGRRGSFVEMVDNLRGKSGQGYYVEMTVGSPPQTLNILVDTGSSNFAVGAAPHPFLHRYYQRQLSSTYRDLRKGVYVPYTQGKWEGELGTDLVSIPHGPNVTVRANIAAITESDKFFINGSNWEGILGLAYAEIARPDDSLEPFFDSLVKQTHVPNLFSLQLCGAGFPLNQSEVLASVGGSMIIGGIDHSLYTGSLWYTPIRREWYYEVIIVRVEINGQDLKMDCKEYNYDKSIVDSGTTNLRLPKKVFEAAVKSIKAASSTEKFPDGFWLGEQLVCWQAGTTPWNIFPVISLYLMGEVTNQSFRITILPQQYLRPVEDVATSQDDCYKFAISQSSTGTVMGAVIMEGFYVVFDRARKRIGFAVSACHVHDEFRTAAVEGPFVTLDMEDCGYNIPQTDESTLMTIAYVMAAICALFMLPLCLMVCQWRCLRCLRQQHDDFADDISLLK

| IC50 (human recombinant BACE1) [µM] | IC50 (human recombinant BACE2) [µM] | IC50 [1] [µM] | IC50 (Recombinant Cat D) [µM] | IC50 (human recombinant BACE1; BACE1 FRET enzyme assay) [µM] | IC50 (human recombinant BACE2; BACE2 FRET enzyme assay) [µM] | IC50 ([1]; BACE1 cell-based assay) [µM] | IC50 (Recombinant Cat D; Cathepsin D FRET enzyme assay) [µM] | Structure (SMILES) |
| --- | --- | --- | --- | --- | --- | --- | --- | --- |
| 0.000555 | 0.0123 | 0.00098 | 709 | – | – | – | – | [2H]C([2H])([2H])C#CC([2H])([2H])Oc1cnc2c(Nc3cnc(F)c([C@@]4(C)N=C(N)S[C@@]5(CF)C[C@H]54)c3)nccc2n1 [Example 613, N-(5-((1S,5S,6S)-3-amino-1-(fluoromethyl)-5-methyl-2-thia-4-azabicyclo[4.1.0]hept-3-en-5-yl)-6-fluoro-3-pyridinyl)-2-((~2~H_5_)-2-butyn-1-yloxy)pyrido[3,4-b]pyrazin-5-amine] |
| 0.00075 | < 0.00203 | 0.000971 | 134 | – | – | – | – | C[C@]1(c2cc(NC(=O)c3ccc(Cl)cn3)ccc2F)N=C(N)S[C@@]2(C(=O)NC3CC3)C[C@H]21 [Example 792, (1S,5S,6S)-3-amino-5-(5-(((5-chloro-2-pyridinyl)carbonyl)amino)-2-fluorophenyl)-N-cyclopropyl-5-methyl-2-thia-4-azabicyclo[4.1.0]hept-3-en-1-carboxamide] |
| 0.000776 | 0.00801 | 0.0019 | 354 | – | – | – | – | C#CCOc1cnc(C(=O)Nc2ccc(F)c([C@@]3(C)N=C(N)S[C@@]4(CF)C[C@H]43)c2)c(C)n1 [Example 829, N-(3-((1S,5S,6S)-3-amino-1-(fluoromethyl)-5-methyl-2-thia-4-azabicyclo[4.1.0]hept-3-en-5-yl)-4-fluorophenyl)-3-methyl-5-(2-propyn-1-yloxy)-2-pyrazinecarboxamide] |
| – | – | – | – | 0.0133 | 0.0836 | 0.00781 | 1230 | COC[C@]12C[C@H]1[C@@](C)(c1cc(Nc3ncnc4cc(OC)cnc34)cc(F)c1F)N=C(N)S2 [Example 65, N-(3-((1S,5S,6S)-3-amino-1-(methoxymethyl)-5-methyl-2-thia-4-azabicyclo[4.1.0]hept-3-en-5-yl)-4,5-difluorophenyl)-7-methoxypyrido[3,2-d]pyrimidin-4-amine] |
| 0.012 | 0.0223 | 0.0214 | 171 | – | – | – | – | C[C@]1(c2cc(Nc3ncnc4cc(C#N)cnc34)ccc2F)N=C(N)S[C@@]2(CO)[C@@H]1C2(F)F [Example 961, 4-((3-((1R,5S,6S)-3-amino-7,7-difluoro-1-(hydroxymethyl)-5-methyl-2-thia-4-azabicyclo[4.1.0]hept-3-en-5-yl)-4-fluorophenyl)amino)pyrido[3,2-d]pyrimidine-7-carbonitrile] |
| 0.000673 | 0.0231 | 0.00563 | 728 | – | – | – | – | C#CCOc1cnc(C(=O)Nc2cc(F)c(F)c([C@@]3(C)N=C(N)S[C@@]4(CF)C[C@H]43)c2)c(Cl)c1 [Example 691, N-(3-((1S,5S,6S)-3-amino-1-(fluoromethyl)-5-methyl-2-thia-4-azabicyclo[4.1.0]hept-3-en-5-yl)-4,5-difluorophenyl)-3-chloro-5-(2-propyn-1-yloxy)-2-pyridinecarboxamide] |
| 0.000974 | 0.0358 | 0.00181 | 123 | – | – | – | – | COC[C@]12C[C@H]1[C@@](C)(c1cc(Nc3ncnc4cc(OCc5ncco5)cnc34)cc(F)c1F)N=C(N)S2 [Example 809, N-(3-((1S,5S,6S)-3-amino-1-(methoxymethyl)-5-methyl-2-thia-4-azabicyclo[4.1.0]hept-3-en-5-yl)-4,5-difluorophenyl)-7-(1,3-oxazol-2-ylmethoxy)pyrido[3,2-d]pyrimidin-4-amine] |
| 0.000266 | 0.00982 | 0.000106 | 22.5 | – | – | – | – | C#CCOc1cnc(C(=O)Nc2ccc(F)c([C@@]3(C)N=C(N)S[C@@]4(C(=O)NCC)C[C@H]43)c2)cn1 [Example 1017, (1S,5S,6S)-3-amino-N-ethyl-5-(2-fluoro-5-(5-(prop-2-yn-1-yloxy)pyrazine-2-carboxamido)phenyl)-5-methyl-2-thia-4-azabicyclo[4.1.0]hept-3-ene-1-carboxamide] |
| – | – | – | – | 0.00911 | 0.00296 | 0.0177 | > 400 | COC[C@]12C[C@H]1[C@@](CF)(c1cc(Nc3ncnc4cc(Cl)cnc34)ccc1F)N=C(N)S2 [Example 73, N-(3-((1S,5S,6S)-3-amino-5-(fluoromethyl)-1-(methoxymethyl)-2-thia-4-azabicyclo[4.1.0]hept-3-en-5-yl)-4-fluorophenyl)-7-chloropyrido[3,2-d]pyrimidin-4-amine] |
| 0.000515 | 0.00399 | 0.00974 | 84.2 | – | – | – | – | C#CCOc1cnc2c(Nc3cc(F)c(F)c([C@@]4(C)N=C(N)S[C@@]5(C#N)C[C@H]54)c3)nccc2n1 [Example 916, (1S,5S,6S)-3-amino-5-(2,3-difluoro-5-((2-(2-propyn-1-yloxy)pyrido[3,4-b]pyrazin-5-yl)amino)phenyl)-5-methyl-2-thia-4-azabicyclo[4.1.0]hept-3-ene-1-carbonitrile] |
| 0.00201 | 0.177 | 0.00772 | 1690 | – | – | – | – | C#CCOc1cnc2c(Nc3cnc(F)c([C@@]4(C)N=C(N)S[C@@]5([C@@H](O)C(F)(F)F)C[C@H]54)c3)ncnc2c1 [Example 666, (1S)-1-((1S,5S,6S)-3-amino-5-(2-fluoro-5-((7-(2-propyn-1-yloxy)pyrido[3,2-d]pyrimidin-4-yl)ammo)-3-pyridinyl)-5-methyl-2-thia-4-azabicyclo[4.1.0]hept-3-en-1-yl)-2,2,2-trifluoroethanol] |
| 0.000352 | 0.00931 | 0.0138 | 196 | – | – | – | – | C#CCOc1cnc(C(=O)Nc2cc(C)c(F)c([C@@]3(C)N=C(N)S[C@@]4(COC)C[C@H]43)c2)cn1 [Example 1043, N-(3-((1S,5S,6S)-3-amino-1-(methoxymethyl)-5-methyl-2-thia-4-azabicyclo[4.1.0]hept-3-en-5-yl)-4-fluoro-5-methylphenyl)-5-(2-propyn-1-yloxy)-2-pyrazinecarboxamide] |
| 0.00121 | 0.00886 | 0.00207 | 1150 | – | – | – | – | [2H]C([2H])([2H])OC[C@]12C[C@H]1[C@@](C)(c1cc(NC(=O)c3ncc(OCC#C)nc3C)cnc1F)N=C(N)S2 [Example 850, N-(5-((1S,5S,6S)-3-amino-5-methyl-1-(((~2~H_3_)methyloxy)methyl)-2-thia-4-azabicyclo[4.1.0]hept-3-en-5-yl)-6-fluoro-3-pyridinyl)-3-methyl-5-(2-propyn-1-yloxy)-2-pyrazinecarboxamide] |
| 0.016 | 0.146 | 0.0083 | > 400 | – | – | – | – | COC[C@]12C[C@H]1[C@@](C)(c1cc(NC(=O)c3cnc(OCCF)cn3)ccc1F)N=C(N)S2 [Example 1052, N-(3-((1S,5S,6S)-3-amino-1-(methoxymethyl)-5-methyl-2-thia-4-azabicyclo[4.1.0]hept-3-en-5-yl)-4-fluorophenyl)-5-(2-fluoroethoxy)-2-pyrazinecarboxamide] |
| 0.0365 | 0.0582 | 0.0205 | 2880 | – | – | – | – | COC[C@]12C[C@H]1[C@@](C)(c1cc(Nc3nccc4cc(OC)cnc34)cc(F)c1F)N=C(N)S2 [Example 629, N-(3-((1S,5S,6S)-3-amino-1-(methoxymethyl)-5-methyl-2-thia-4-azabicyclo[4.1.0]hept-3-en-5-yl)-4,5-difluorophenyl)-3-methoxy-1,7-naphthyridin-8-amine] |
